This assay deals with Amb a 1-specific T cell lines (TCL). Kind of assay: T cell epitope mapping of Amb a 1.3: proliferation (3H-thymidine uptake) of TCL stimulated with synthetic peptides. The format is cell-based, human. As to conditions: for No. positive patients SI > 3 / No. positive patients SI > 5 / % (positive patients SI > 3) / % (positive patients SI > 5): TCL from 48 ragweed pollen-allergic patients, peptide 5 μg/ml; for No. positive patients SI > 3 / No. positive patients SI > 5: 3H-thymidine uptake after 48 hrs; for No. positive patients SI > 3 / % (positive patients SI > 3): stimulation index > 3; for No. positive patients SI > 5 / % (positive patients SI > 5): stimulation index > 5; for T cell activating region recognized by % of patients: classes of prevalence referring to SI>5, 48 TCL. The procedure, abridged:
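Amb a 1-specific TCL from ragweed-allergic patients, raised with ragweed extract or rAmb a 1.3, stimulated 48 h with 121 overlapping 12-mer peptides plus one C-terminal 13-mer (9-residue overlap) at 5 μg/ml. Proliferation by 3H-thymidine uptake; SI against the mean cpm of the ten least stimulating peptides, epitope when SI ≥3.0.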

Results on 32 sequences are retold here after patent US9360486B2, “Allergen fragments” (Biomay AG, priority 2007, dated 2016).

Regarding “PDDQIKKNVLAR (Amb a 1 fragment) [Peptide 98]”, the “reactivity with T cells isolated from allergic individuals” value (“reactivity with T cells isolated” below) was “reactivity with T cells”, the “No. positive patients SI > 3” value is 13, the “No. positive patients SI > 5” value is 8 and the “% (positive patients SI > 3)” value was found to be 27.1%. Besides, the “% (positive patients SI > 5)” value stood at 16.7%.

In the case of “PDDQIKKNVLARTGT (Amb a 1 fragment) [Peptide 98-99]”, the “reactivity with T cells isolated” value is “reactivity with T cells” and the “T cell activating region recognized by % of patients” value is “recognized by 16.7%”.

As to “PILRQASDGDTI (Amb a 1 fragment) [Peptide 55]”, the “No. positive patients SI > 3” value is recorded as 3, the “No. positive patients SI > 5” value was 1, the “% (positive patients SI > 3)” value was 6.3% and the “% (positive patients SI > 5)” value is reported as 2.1%.

“PLWIIFKNDMVI (Amb a 1 fragment) [Peptide 31]”: the “reactivity with T cells isolated” value is “reactivity with T cells”, the “No. positive patients SI > 3” value is reported as 11, the “No. positive patients SI > 5” value was 10 and the “% (positive patients SI > 3)” value is 22.9%. Moreover, the “% (positive patients SI > 5)” value worked out at 20.8%.

Regarding “PSVNETRSLQAC (Amb a 1 fragment) [Peptide 4]”, the “No. positive patients SI > 3” value was 4, the “No. positive patients SI > 5” value amounted to 1, the “% (positive patients SI > 3)” value is on record as 8.3% and the “% (positive patients SI > 5)” value was 2.1%.

Consider “PTILCQGNRFLA (Amb a 1 fragment) [Peptide 94]”, for which the “reactivity with T cells isolated” value was “reactivity with T cells”, the “No. positive patients SI > 3” value came to 11, the “No. positive patients SI > 5” value was 9 and the “% (positive patients SI > 3)” value amounted to 22.9%. Also, the “% (positive patients SI > 5)” value is on record as 18.8% and the “T cell activating region recognized by % of patients” value was “recognized by 18.8%”.

As to “PVQSAGMIPAEP (Amb a 1 fragment) [Peptide 114]”, the “reactivity with T cells isolated” value is “reactivity with T cells”, the “No. positive patients SI > 3” value was 8, the “No. positive patients SI > 5” value is reported as 5 and the “% (positive patients SI > 3)” value was found to be 16.7%. For the same sequence, the “% (positive patients SI > 5)” value came to 10.4%.

Regarding “PVQSAGMIPAEPGEA (Amb a 1 fragment) [Peptide 114-115]”, the “reactivity with T cells isolated” value was “reactivity with T cells” and the “T cell activating region recognized by % of patients” value is recorded as “recognized by 35.4%”.

On to “QACEAYNIIDKC (Amb a 1 fragment) [Peptide 7]”, for which the “No. positive patients SI > 3” value came to 1, the “No. positive patients SI > 5” value is listed as 0, the “% (positive patients SI > 3)” value was determined as 2.1% and the “% (positive patients SI > 5)” value is on record as 0.0%.

On to “QELVVNSDKTID (Amb a 1 fragment) [Peptide 36]”, for which the “reactivity with T cells isolated” value is “reactivity with T cells”, the “No. positive patients SI > 3” value is 14, the “No. positive patients SI > 5” value came out at 12 and the “% (positive patients SI > 3)” value amounted to 29.2%. Moreover, the “% (positive patients SI > 5)” value was determined as 25.0%.

As to “QELVVNSDKTIDGRG (Amb a 1 fragment) [Peptide 36-37]”, the “reactivity with T cells isolated” value was “reactivity with T cells” and the “T cell activating region recognized by % of patients” value is “recognized by 25.0%”.

With “QGFAKGTYGGKW (Amb a 1 fragment) [Peptide 17]”, the “No. positive patients SI > 3” value is on record as 2, the “No. positive patients SI > 5” value turned out to be 1, the “% (positive patients SI > 3)” value came out at 4.2% and the “% (positive patients SI > 5)” value came out at 2.1%.

For “QIKKNVLARTGT (Amb a 1 fragment) [Peptide 99]”, the “reactivity with T cells isolated” value is given as “reactivity with T cells”, the “No. positive patients SI > 3” value is 8, the “No. positive patients SI > 5” value came to 4 and the “% (positive patients SI > 3)” value is reported as 16.7%. Moreover, the “% (positive patients SI > 5)” value stood at 8.3%.

Turning to “QIWIDHCSLSKS (Amb a 1 fragment) [Peptide 61]”, the “reactivity with T cells isolated” value is given as “reactivity with T cells”, the “No. positive patients SI > 3” value turned out to be 29, the “No. positive patients SI > 5” value stood at 24 and the “% (positive patients SI > 3)” value is listed as 60.4%. For the same sequence, the “% (positive patients SI > 5)” value came out at 50.0%.

For the sequence “QNRPLWIIFKND (Amb a 1 fragment) [Peptide 30]”, the “reactivity with T cells isolated” value is “reactivity with T cells”, the “No. positive patients SI > 3” value is on record as 11, the “No. positive patients SI > 5” value turned out to be 9 and the “% (positive patients SI > 3)” value came out at 22.9%. The “% (positive patients SI > 5)” value is reported as 18.8%.

Take “QNRPLWIIFKNDMVI (Amb a 1 fragment) [Peptide 30-31]”: the “reactivity with T cells isolated” value is “reactivity with T cells” and the “T cell activating region recognized by % of patients” value is “recognized by 20.8%”.

Regarding “RCRFGFFQVVNN (Amb a 1 fragment) [Peptide 85]”, the “No. positive patients SI > 3” value is on record as 4, the “No. positive patients SI > 5” value worked out at 1, the “% (positive patients SI > 3)” value worked out at 8.3% and the “% (positive patients SI > 5)” value came out at 2.1%.

For the sequence “RMPRCRFGFFQV (Amb a 1 fragment) [Peptide 84]”, the “No. positive patients SI > 3” value turned out to be 3, the “No. positive patients SI > 5” value came out at 1, the “% (positive patients SI > 3)” value was 6.3% and the “% (positive patients SI > 5)” value came to 2.1%.

With “RQASDGDTINVA (Amb a 1 fragment) [Peptide 56]”, the “No. positive patients SI > 3” value came to 1, the “No. positive patients SI > 5” value was determined as 1, the “% (positive patients SI > 3)” value turned out to be 2.1% and the “% (positive patients SI > 5)” value came out at 2.1%.

Take “RSLQACEAYNII (Amb a 1 fragment) [Peptide 6]”: the “No. positive patients SI > 3” value came out at 1, the “No. positive patients SI > 5” value is on record as 0, the “% (positive patients SI > 3)” value was 2.1% and the “% (positive patients SI > 5)” value is reported as 0.0%.

“RWGTYAIGGSSA (Amb a 1 fragment) [Peptide 90]”: the “reactivity with T cells isolated” value is listed as “reactivity with T cells”, the “No. positive patients SI > 3” value turned out to be 5, the “No. positive patients SI > 5” value was determined as 3 and the “% (positive patients SI > 3)” value is reported as 10.4%. The “% (positive patients SI > 5)” value came out at 6.3%.

For “SAEGVGEILPSV (Amb a 1 fragment) [Peptide 1]”, the “No. positive patients SI > 3” value was determined as 2, the “No. positive patients SI > 5” value amounted to 0, the “% (positive patients SI > 3)” value is 4.2% and the “% (positive patients SI > 5)” value is given as 0.0%.

“SAGMIPAEPGEA (Amb a 1 fragment) [Peptide 115]”: the “reactivity with T cells isolated” value is recorded as “reactivity with T cells”, the “No. positive patients SI > 3” value is reported as 18, the “No. positive patients SI > 5” value is on record as 17 and the “% (positive patients SI > 3)” value is recorded as 37.5%. The “% (positive patients SI > 5)” value was found to be 35.4%.

Consider “SAGVLSCRPGAPC (Amb a 1 fragment) [Peptide 121]”, for which the “reactivity with T cells isolated” value is on record as “reactivity with T cells”, the “No. positive patients SI > 3” value is recorded as 6, the “No. positive patients SI > 5” value is recorded as 2 and the “% (positive patients SI > 3)” value was determined as 12.5%. The “% (positive patients SI > 5)” value was 4.2%.

As for “SDGDTINVAGSS (Amb a 1 fragment) [Peptide 57]”, the “No. positive patients SI > 3” value came out at 0, the “No. positive patients SI > 5” value is 0, the “% (positive patients SI > 3)” value worked out at 0.0% and the “% (positive patients SI > 5)” value amounted to 0.0%.

As to “SDKTIDGRGVKV (Amb a 1 fragment) [Peptide 38]”, the “reactivity with T cells isolated” value is on record as “reactivity with T cells”, the “No. positive patients SI > 3” value is on record as 13, the “No. positive patients SI > 5” value was determined as 11 and the “% (positive patients SI > 3)” value is reported as 27.1%. Also, the “% (positive patients SI > 5)” value amounted to 22.9%.

As for “SDKTIDGRGVKVEIINGG (Amb a 1 fragment) [Peptide 38-40]”, the “reactivity with T cells isolated” value is “reactivity with T cells” and the “T cell activating region recognized by % of patients” value is “recognized by 33.3%”.

As for “SDPVLTPVQSAG (Amb a 1 fragment) [Peptide 112]”, the “reactivity with T cells isolated” value is “reactivity with T cells”, the “No. positive patients SI > 3” value stood at 7, the “No. positive patients SI > 5” value turned out to be 3 and the “% (positive patients SI > 3)” value was 14.6%. Moreover, the “% (positive patients SI > 5)” value came out at 6.3%.

As to “SKAILLGADDTH (Amb a 1 fragment) [Peptide 73]”, the “No. positive patients SI > 3” value came out at 4, the “No. positive patients SI > 5” value turned out to be 2, the “% (positive patients SI > 3)” value is on record as 8.3% and the “% (positive patients SI > 5)” value was 4.2%.

Regarding “SKSFDGLVDVTL (Amb a 1 fragment) [Peptide 64]”, the “No. positive patients SI > 3” value was 3, the “No. positive patients SI > 5” value is listed as 1, the “% (positive patients SI > 3)” value was 6.3% and the “% (positive patients SI > 5)” value came out at 2.1%.

Regarding “SSAPTILCQGNR (Amb a 1 fragment) [Peptide 93]”, the “reactivity with T cells isolated” value is reported as “reactivity with T cells”, the “No. positive patients SI > 3” value was 6, the “No. positive patients SI > 5” value is 4 and the “% (positive patients SI > 3)” value is recorded as 12.5%. For the same sequence, the “% (positive patients SI > 5)” value is given as 8.3%.

Consider “TDNVDQRMPRCR (Amb a 1 fragment) [Peptide 82]”, for which the “No. positive patients SI > 3” value is 3, the “No. positive patients SI > 5” value is recorded as 2, the “% (positive patients SI > 3)” value came to 6.3% and the “% (positive patients SI > 5)” value turned out to be 4.2%.
